According to patent US20210395721A1, “METHODS TO IMPROVE POTENCY OF ELECTROPORATION” (Codiak BioSciences, Inc., priority 2018, published 2021):

How the values were obtained:
[1] = Anion exchange chromatography (AEX) of siRNA before and after electroporation; type: physicochemical; conditions: for effect of excipient on AEX profile of XD-08318 after electroporation: 5 ms per pulse
Description: Anion exchange chromatography (AEX) was carried out on an Agilent 1100 HPLC using a […] PA200 column (Thermo Scientific). The column was equilibrated in 50 mM Tris pH 7.4, and 20 ng of each siRNA sample was prepared in a 100 μl HPLC vial for injection. The sample was injected and subjected to a gradient of 50 mM Tris pH 7.4 (mobile phase A) and 50 mM Tris, 1 M NaCl, pH 7.4 (mobile phase B) according to Tables 1 and 2, below. Electroporation is a common method for introducing nucleic acids into cells and other lipid structures such as exosomes. As an analytical method, siRNAs were analyzed by anion exchange chromatography (AEX), as described above, before and after electroporation. […] XD-08318 is a modified siRNA that contains a 5' terminal deoxyribose residue on the antisense strand, a combination of natural ribose and synthetic 2'-O-methyl ribose residues, and phosphorothioate linkages at the 3' ends of each strand (FIG. 2). Synthetic RNA XD-08318 was electroporated in the presence of several free radical scavengers and reducing agents as excipients.

KRAS G12D transcript = KRAS G12D transcript knockdown in Panc-1 cells; type: cell-based, human; conditions: FIG. 14, samples #9, #10 vs #4-8
Description: XD-08318 was loaded into exosomes by electroporation in the presence or absence of free radical scavengers. As a control, XD-08318 was transfected into the human pancreatic cancer cell line Panc-1, which is heterozygous for the G12D mutant transcript of KRAS. […] As controls, in the absence of any transfection reagent, Panc-1 cells were incubated with a mixture of the siRNA and exosomes without electroporation (mix), siRNA only, exosomes alone (EV only), or in the presence of siRNA and exosomes that were electroporated individually (si EP+EV EP Mix). […] Next, XD-08318 was loaded into exosomes by electroporation at pulse code 42 (sample 4) and incubated with cells, resulting in a modest ˜30% repression of the target transcript.

[2] = MaxCyte strong pulse code 66 (high field strength, high frequency)

SMILES | effect of excipient on AEX spectral shift of XD-08318 after electroporation [1, 2] | knock-down by modified siRNA electroporated into exosomes in presence of the scavenger, compared to absence of free radical scavengers (KRAS G12D transcript) | effect of excipient on AEX profile of XD-08318 after electroporation ([1]; Gene Pulser XCell (Bio-Rad), 800 V, 2 pulses) | effect of excipient on AEX profile of XD-08318 after electroporation ([1]; Neon Transfection System, 2000 V, 8 pulses) | effect of excipient on AEX spectral shift of XD-08318 after electroporation ([1]; MaxCyte intermediate pulse code 63 (high field strength, low frequency))
CSCC[C@H](N)C(=O)O [L-Methionine] | prevented the spectral shift | increased knock-down | – | – | –
N[C@@H](CCC(=O)N[C@@H](CS)C(=O)NCC(=O)O)C(=O)O [Glutathione] | prevented the spectral shift | – | prevent a change in the AEX profile | prevent a change in the AEX profile | –
N[C@@H](CS)C(=O)O [L-cysteine] | prevented the spectral shift | – | – | – | prevented the spectral shift
